Laboratory results: patent US8354403B2, “Pyrrolidine derived beta 3 adrenergic receptor agonists” (Merck Sharp & Dohme Corp., priority 2009, dated 2013)

target: T1, human β3 adrenergic receptor (Homo sapiens, UniProt P13945); assay: Beta-3 agonist in vitro functional assay: cAMP production (LANCE TR-FRET) in CHO cells stably transfected with the cloned β3 receptor; type: cell-based; details: Human β3 agonist functional activity
T1 construct: expressed in transfected cells; host or cells: Chinese hamster ovary (CHO) cells, stably transfected
Procedure, shortened: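 CHO cells stably expressing the cloned receptor, in HEPES-buffered HBSS with BSA and 0.6 mM IBMX, 6,000 cells/well, exposed to compound for 30 min at RT. cAMP read by LANCE TR-FRET against a cAMP standard curve. Isoproterenol defines maximal stimulation.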

T1 sequence (P13945 whole entry): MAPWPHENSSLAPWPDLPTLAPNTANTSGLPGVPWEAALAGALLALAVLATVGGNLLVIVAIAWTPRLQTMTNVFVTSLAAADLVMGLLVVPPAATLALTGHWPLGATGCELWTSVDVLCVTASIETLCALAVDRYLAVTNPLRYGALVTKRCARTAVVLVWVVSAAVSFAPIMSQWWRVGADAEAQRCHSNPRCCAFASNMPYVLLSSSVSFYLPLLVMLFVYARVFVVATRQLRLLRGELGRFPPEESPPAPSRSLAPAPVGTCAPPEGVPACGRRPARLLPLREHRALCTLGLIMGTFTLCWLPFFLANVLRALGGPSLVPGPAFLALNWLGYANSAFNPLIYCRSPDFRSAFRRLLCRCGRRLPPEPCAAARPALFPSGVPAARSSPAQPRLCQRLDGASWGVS

SMILES	EC50 [nM]
O=C(c1ccc(C[C@@H]2CC[C@H]([C@H](O)c3ccccc3)N2)cc1)N1CCc2c(O)noc2C1 [Example 54]	100 to 999

same assay, conditions: Table 4; cAMP, CHO cells; read-out: Human β3 agonist functional activity

EC50 [nM]	SMILES
10 to 99.9	O=C(c1ccc(C[C@@H]2CC[C@H]([C@H](O)c3ccccc3)N2)cc1)N1CCCC(S(=O)(=O)c2ncc(Br)s2)C1 (some centres unmarked) [Example 38]
100 to 999	COc1ccc2c(c1)C(=O)CC1(CCCN(C(=O)c3ccc(C[C@@H]4CC[C@H]([C@H](O)c5cccnc5)N4)cc3)C1)O2 (some centres unmarked) [Example 42]

same assay, conditions: Table 5; cAMP, CHO cells; read-out: Human β3 agonist functional activity

EC50 [nM]	SMILES
100 to 999	COC(=O)c1cc(OC2CCN(C(=O)c3ccc(C[C@@H]4CC[C@H]([C@H](O)c5ccccc5)N4)cc3)CC2)no1 [Example 159]
10 to 99.9	N#Cc1ccc(S(=O)(=O)C2CCN(C(=O)c3ccc(C[C@@H]4CC[C@H]([C@H](O)c5ccccc5)N4)cc3)CC2)cc1 [Example 137]
10 to 99.9	O=C(c1ccc(C[C@@H]2CC[C@H]([C@H](O)c3ccccc3)N2)cc1)N1CCC(Cn2ncccc2=O)CC1 [Example 148]
1 to 9.9	CCS(=O)(=O)C1CCN(C(=O)c2ccc(C[C@@H]3CC[C@H]([C@H](O)c4ccccc4)N3)cc2)CC1 [Example 124]
100 to 999	O=C(c1ccc(C[C@@H]2CC[C@H]([C@H](O)c3ccccc3)N2)cc1)N1CCC(c2ncccn2)CC1 [Example 114]
10 to 99.9	O=C(c1ccc(C[C@@H]2CC[C@H]([C@H](O)c3ccccc3)N2)cc1)N1CCC(Cc2ccccc2F)CC1 [Example 144]
10 to 99.9	O=C(c1ccc(C[C@@H]2CC[C@H]([C@H](O)c3cccnc3)N2)cc1)N1CCC(n2cc(-c3ccccc3)[nH]c2=O)CC1 [Example 85]
100 to 999	O=C(c1ccc(C[C@@H]2CC[C@H]([C@H](O)c3ccccc3)N2)cc1)N1CCC(Oc2cncc(Cl)n2)CC1 [Example 155]
10 to 99.9	O=C(c1ccc(C[C@@H]2CC[C@H]([C@H](O)c3cccnc3)N2)cc1)N1CCC(S(=O)(=O)c2ccccc2F)CC1 [Example 133]
10 to 99.9	COC(=O)c1csc(C2CCN(C(=O)c3ccc(C[C@@H]4CC[C@H]([C@H](O)c5ccccc5)N4)cc3)CC2)n1 [Example 88]
10 to 99.9	O=C(c1ccc(C[C@@H]2CC[C@H]([C@H](O)c3ccccc3)N2)cc1)N1CCC(C(O)c2ccccn2)CC1 (some centres unmarked) [Example 168]

same assay, conditions: Table 7; cAMP, CHO cells; ranges as given for Tables 6 and 7; read-out: Human β3 agonist functional activity

EC50 [nM]	SMILES
10 to 99.9	N#CC1(c2cccnn2)C2CN(C(=O)c3ccc(C[C@@H]4CC[C@H]([C@H](O)c5ccccc5)N4)cc3)CC21 (some centres unmarked) [Example 236]
10 to 99.9	O=C(c1ncco1)C1C2CN(C(=O)c3ccc(C[C@@H]4CC[C@H]([C@H](O)c5ccccc5)N4)cc3)CC21 (some centres unmarked) [Example 234]

same assay, conditions: Table 8; Beta-3 agonist in vitro functional assay; read-out: Human β3 agonist functional activity

EC50 [nM]	SMILES
10 to 99.9	COc1cccc2c1C1(CCN(C(=O)c3ccc(C[C@@H]4CC[C@H]([C@H](O)c5cccnc5)N4)cc3)CC1)OC(=O)N2 [Example 331]
10 to 99.9	CC(C)COc1ccc2c(c1)C(=O)CC1(CCN(C(=O)c3ccc(C[C@@H]4CC[C@H]([C@H](O)c5ccccc5)N4)cc3)CC1)O2 [Example 324]
1 to 9.9	CC1(C)CC2(CCN(C(=O)c3ccc(C[C@@H]4CC[C@H]([C@H](O)c5ccccc5)N4)cc3)CC2)C(=O)O1 [Example 293]
1 to 9.9	O=C1CC(c2ccccc2)C2(CCN(C(=O)c3ccc(C[C@@H]4CC[C@H]([C@H](O)c5ccccc5)N4)cc3)CC2)O1 (some centres unmarked) [Example 280]
10 to 99.9	O=C(c1ccc(C[C@@H]2CC[C@H]([C@H](O)c3cccnc3)N2)cc1)N1CCC2(CC1)NC(=O)N(Cc1ccccc1)C2=O [Example 270]
10 to 99.9	COc1ccc2c(n1)C1(CCN(C(=O)c3ccc(C[C@@H]4CC[C@H]([C@H](O)c5ccccc5)N4)cc3)CC1)OC2=O [Example 288]
100 to 999	CC1(C)OCC2(CCN(C(=O)c3ccc(C[C@@H]4CC[C@H]([C@H](O)c5ccccc5)N4)cc3)CC2)C1O (some centres unmarked) [Example 313]
10 to 99.9	O=C1NC(=O)C2(CCN(C(=O)c3ccc(C[C@@H]4CC[C@H]([C@H](O)c5ccccc5)N4)cc3)CC2)N1 [Example 267]
10 to 99.9	O=C1OC2(CCN(C(=O)c3ccc(C[C@@H]4CC[C@H]([C@H](O)c5ccccc5)N4)cc3)CC2)c2ccncc21 [Example 285]
100 to 999	CN1CCCC2(CCN(C(=O)c3ccc(C[C@@H]4CC[C@H]([C@H](O)c5ccccc5)N4)cc3)CC2)C1=O [Example 257]
10 to 99.9	O=C(c1ccc(C[C@@H]2CC[C@H]([C@H](O)c3ccccc3)N2)cc1)N1CCC(F)(S(=O)(=O)c2ccc(F)cc2)CC1 [Example 240]
10 to 99.9	O=C1OC2(CCN(C(=O)c3ccc(C[C@@H]4CC[C@H]([C@H](O)c5ccccc5)N4)cc3)CC2)c2cccnc21 [Example 286]

same assay, conditions: Table 9; Beta-3 agonist in vitro functional assay; read-out: Human β3 agonist functional activity

EC50 [nM]	SMILES
100 to 999	O=C(c1ccc(C[C@@H]2CC[C@H]([C@H](O)c3ccccc3)N2)cc1)N1CCN(C2(c3ccccn3)CC2)CC1 [Example 420]
100 to 999	COC(=O)c1csc(N2CCN(C(=O)c3ccc(C[C@@H]4CC[C@H]([C@H](O)c5ccccc5)N4)cc3)CC2)n1 [Example 381]
100 to 999	O=C(c1ccccc1)N1CCN(C(=O)c2ccc(C[C@@H]3CC[C@H]([C@H](O)c4ccccc4)N3)cc2)CC1 [Example 347]
10 to 99.9	COC(=O)c1ccccc1N1CCN(C(=O)c2ccc(C[C@@H]3CC[C@H]([C@H](O)c4ccccc4)N3)cc2)CC1 [Example 351]
10 to 99.9	CC(C)C(c1ccccn1)N1CCN(C(=O)c2ccc(C[C@@H]3CC[C@H]([C@H](O)c4ccccc4)N3)cc2)CC1 (some centres unmarked) [Example 419]
10 to 99.9	CC(c1nn[nH]n1)N1CCN(C(=O)c2ccc(C[C@@H]3CC[C@H]([C@H](O)c4ccccc4)N3)cc2)CC1 (some centres unmarked) [Example 423]
10 to 99.9	COC(=O)COc1cccnc1N1CCN(C(=O)c2ccc(C[C@@H]3CC[C@H]([C@H](O)c4ccccc4)N3)cc2)CC1 [Example 368]

same assay, conditions: Table 10; Beta-3 agonist in vitro functional assay; read-out: Human β3 agonist functional activity

EC50 [nM]	SMILES
1 to 9.9	Cc1nc2c(o1)CN(C(=O)C(C)N1CCN(C(=O)c3ccc(C[C@@H]4CC[C@H]([C@H](O)c5ccccc5)N4)cc3)CC1)CC2 (some centres unmarked) [Example 504]
1 to 9.9	CC(C(=O)N(C)C)N1CCN(C(=O)c2ccc(C[C@@H]3CC[C@H]([C@H](O)c4ccccc4)N3)cc2)CC1 (some centres unmarked) [Example 513]
100 to 999	CC(C)CN(C)C(=O)C(C)N1CCN(C(=O)c2ccc(C[C@@H]3CC[C@H]([C@H](O)c4ccccc4)N3)cc2)CC1 (some centres unmarked) [Example 518]
10 to 99.9	CC(C(=O)N1Cc2cccnc2C1)N1CCN(C(=O)c2ccc(C[C@@H]3CC[C@H]([C@H](O)c4ccccc4)N3)cc2)CC1 (some centres unmarked) [Example 482]
10 to 99.9	COC[C@H](C)NC(=O)C(C)N1CCN(C(=O)c2ccc(C[C@@H]3CC[C@H]([C@H](O)c4ccccc4)N3)cc2)CC1 (some centres unmarked) [Example 446]
10 to 99.9	CC(C(=O)N1CCC(C2CC2)CC1)N1CCN(C(=O)c2ccc(C[C@@H]3CC[C@H]([C@H](O)c4ccccc4)N3)cc2)CC1 (some centres unmarked) [Example 494]

same assay, conditions: Table 11; cAMP, CHO cells; read-out: Human β3 agonist functional activity

EC50 [nM]	SMILES
100 to 999	C[C@H](c1ccccn1)N1CC2CCC1CN2C(=O)c1ccc(C[C@@H]2CC[C@H]([C@H](O)c3ccccc3)N2)cc1 (some centres unmarked) [Example 541]
10 to 99.9	C[C@H]1CN(Cc2ccccn2)CCN1C(=O)c1ccc(C[C@@H]2CC[C@H]([C@H](O)c3ccccc3)N2)cc1 [Example 530]

same assay, conditions: Table 12; human β3 functional activity given as ranges; read-out: Human β3 agonist functional activity

EC50 [nM]	SMILES
10 to 99.9	O=C(c1ccc(CC2CCC(C(O)c3ccccc3)N2)cc1)N1CCN(C2CCN(C3CC3)C2=O)CC1 (single isomer, unassigned) [Example 608]
10 to 99.9	CC(c1cscn1)N1CCN(C(=O)c2ccc(C[C@@H]3CC[C@H]([C@H](O)c4ccccc4)N3)cc2)CC1 (single isomer, unassigned) [Example 580]
10 to 99.9	CC(c1ncccn1)N1CCN(C(=O)c2ccc(CC3CCC(C(O)c4ccccc4)N3)cc2)CC1 (single isomer, unassigned) [Example 596]
1 to 9.9	O=C1OCCC1N1CCN(C(=O)c2ccc(CC3CCC(C(O)c4ccccc4)N3)cc2)CC1 (single isomer, unassigned) [Example 603]
10 to 99.9	O=C(c1ccc(CC2CCC(C(O)c3ccccc3)N2)cc1)N1CCN(C2CCN(c3ccccc3)C2=O)CC1 (single isomer, unassigned) [Example 606]
1 to 9.9	CCC(c1ccccn1)N1CCN(C(=O)c2ccc(CC3CCC(C(O)c4ccccc4)N3)cc2)CC1 (single isomer, unassigned) [Example 588]
1 to 9.9	O=C(c1ccc(CC2CCC(C(O)c3cccnc3)N2)cc1)N1CCC2(CC1)C(=O)NCC2c1ccc(F)cc1 (single isomer, unassigned) [Example 556]
10 to 99.9	O=C(c1ccc(CC2CCC(C(O)c3ccccc3)N2)cc1)N1CCC2(CC1)CC(C(F)(F)F)OC2=O (single isomer, unassigned) [Example 566]
100 to 999	O=C(c1ccc(CC2CCC(C(O)c3ccccc3)N2)cc1)N1CCN(C2CCN(C3CC3)C2=O)CC1 (single isomer, unassigned) [Example 607]
1 to 9.9	O=C(c1ccc(C[C@@H]2CC[C@H]([C@H](O)c3ccccc3)N2)cc1)N1CCN(C2COc3cccnc32)CC1 (single isomer, unassigned) [Example 600]
1 to 9.9	CC1CC2(CCN(C(=O)c3ccc(CC4CCC(C(O)c5ccccc5)N4)cc3)CC2)C(=O)O1 (single isomer, unassigned) [Example 562]

same assay, conditions: given as a range; cAMP, CHO cells; read-out: human β3 functional activity

EC50 [nM]	SMILES
100 to 999	O=C(c1ccc(C[C@@H]2CC[C@H]([C@H](O)c3cccnc3)N2)cc1)N1CCC(n2cccn2)CC1 [Example 65, (R)-[(2R,5S)-5-(4-{[4-(1H-pyrazol-1-yl)-piperidin-1-yl]carbonyl}benzyl)pyrrolidine-2-yl](pyridin-3-yl)methanol]
1 to 9.9	O=C(c1ccc(C[C@@H]2CC[C@H]([C@H](O)c3ccccc3)N2)cc1)N1CCC2(CC1)CC(C1CC1)OC2=O (single isomer, unassigned) [Ex. 553]
